Experimental data taken from US8673617B2, “Culture medium for Haemophilus influenzae type B” (Sanofi Pasteur SA, priority 2007, dated 2014).

Key:
[1] = test system: Haemophilus influenzae serotype b; assay: PRP production in liquid garden pea peptone-based culture medium as a function of heme source (sandwich ELISA on supernatant); type: cell-based; conditions: for Mean PRP / PRP in mg/l Assay 1 / PRP in mg/l Assay 2: garden pea medium, 16 h
Description: The production of PRP obtained after 16 hours of bacterial culture in liquid plant peptones-based culture media in which the heme source was either hemin or protoporphyrin IX of animal origin (porcine protoporphyrin) in disodium salt form, or protoporphyrin IX of purely synthetic origin in disodium salt form was compared. […] An enzymatic hydrolysate of garden pea peptone provided by Kerry (Hy pea 7404) and a wheat peptone provided by Organotechnie (19559) were tested at a concentration in the culture medium equivalent to 0.87 g/l of protein nitrogen. By reference to the current methods for the production of PRP, PRP production was also measured in a medium that contains a peptone of animal origin, such as casein hydrolysate (HAC) provided by Solabia at a concentration in the medium equivalent to 0.87 g/l with increased concentrations of hemin (see table III).
(§1) 1.1) Preparation of the Media • 1.1.1. Stock solution of β-NAD (Fluka) at 1 g/l in water which was ultrafiltered and then sterilized by filtration through 0.22 μm. • 1.1.2. Stock solution of hemin (Sigma) at 0.25 g/l in water was ultrafiltered, comprising 5 ml of 25% aqueous ammonia (Cooper) to aid dissolution. The stock solution was sterilized by filtration through 0.22 μm. • 1.1.3. Stock solution of porcine protoporphyrin IX (Sigma) at 0.25 g/l in ultrafiltered water comprising 5 ml of 25% aqueous ammonia (Cooper) in order to facilitate the dissolution. The stock solution was sterilized by filtration through 0.22 μm. • 1.1.4. Stock solution of synthetic protoporphyrin IX at 0.25 g/l in ultrafiltered water comprising 5 ml of 25% aqueous ammonia (Cooper) in order to facilitate the dissolution. The stock solution was also heated to 80° C. in a water bath with stirring in order to complete the dissolution before being sterilized by filtration through 0.22 μm. The protoporphyrin IX, in disodium salt form, was synthesized according to the method described in the U.S. provisional patent application Ser. No. 12/057,574, filed Mar. 28, 2008 and application Ser. No. 60/943,735 and filed on Jun. 13, 2007 using the steps which are described in scheme 2. • The stock solutions of hemin and protoporphyrin IX were checked for their respective contents of active compounds after sterilizing filtration. The protoporphyrin IX and hemin contents were determined by Reversed Phase High Performance Liquid Chromatography (RP-HPLC). The chromatographic chain comprises a twin head pump module allowing the formation of a binary gradient, a programmable automatic injector, a diode array UV detector and a chromatographic column of the type Synergi 4 μm, Polar RP-80A (150×4.6) mm, ref 00F-4336-E0, Phenomenex. • The stock solution of hemin (Sigma) to be checked after filtration was diluted ⅓ in distilled water. The stock solutions of porcine protoporphyrin IX (Sigma) and of synthetic protoporphyrin IX to be checked after filtration were diluted ¼ in distilled water. In parallel, a calibration series was prepared in ammoniated water ranging from 0.025 g/l to 0.125 g/l of protoporphyrin IX from porcine protoporphyrin IX from Sigma (ref: 25838-5) and a calibration series ranging from 0.050 g/l to 0.150 g/l of hemin from hemin from Sigma (ref: H5533-256). The samples to be checked and the various solutions of the calibration series were injected in a volume of 20 μl (for the hemin solutions and samples) and of 5 μl (for the protoporphyrin IX solutions and samples). The initial mobile phase consisting of a volume for volume mixture of acetonitrile and 10 mM KH2PO4 pH 2.5 is set at a flow rate of 1 ml/min. A discontinuous gradient was then produced from this mobile phase in order to separate the molecules of interest which are detected at a wavelength of 400 nm. […]

[2] = test system: Haemophilus influenzae serotype b; assay: PRP production in liquid wheat peptone-based culture medium as a function of heme source (sandwich ELISA on supernatant); type: cell-based; conditions: for Mean PRP / PRP in mg/l Assay 1 / PRP in mg/l Assay 2: wheat medium, 16 h
Description: The production of PRP obtained after 16 hours of bacterial culture in liquid plant peptones-based culture media in which the heme source was either hemin or protoporphyrin IX of animal origin (porcine protoporphyrin) in disodium salt form, or protoporphyrin IX of purely synthetic origin in disodium salt form was compared. The hemin and protoporphyrin IX concentration ranges in the culture media varied from about 0.010 g/l to about 2 g/l so as to obtain PRP titration curves as a function of the heme source tested and as a function of the plant peptone tested. An enzymatic hydrolysate of garden pea peptone provided by Kerry (Hy pea 7404) and a wheat peptone provided by Organotechnie (19559) were tested at a concentration in the culture medium equivalent to 0.87 g/l of protein nitrogen. By reference to the current methods for the production of PRP, PRP production was also measured in a medium that contains a peptone of animal origin, such as casein hydrolysate (HAC) provided by Solabia at a concentration in the medium equivalent to 0.87 g/l with increased concentrations of hemin (see table III).
as §1

[3] = porcine protoporphyrin IX 7.48 μg/l
[4] = porcine protoporphyrin IX 37.4 μg/l
[5] = porcine protoporphyrin IX 74.8 μg/l
[6] = porcine protoporphyrin IX 187 μg/l
[7] = porcine protoporphyrin IX 374 μg/l
[8] = porcine protoporphyrin IX 748 μg/l
[9] = porcine protoporphyrin IX 1122 μg/l
[10] = porcine protoporphyrin IX 1496 μg/l
[11] = synthetic protoporphyrin IX 9.96 μg/l
[12] = synthetic protoporphyrin IX 49.8 μg/l
[13] = synthetic protoporphyrin IX 99.6 μg/l
[14] = synthetic protoporphyrin IX 249 μg/l
[15] = synthetic protoporphyrin IX 498 μg/l
[16] = synthetic protoporphyrin IX 996 μg/l
[17] = synthetic protoporphyrin IX 1494 μg/l
[18] = synthetic protoporphyrin IX 1992 μg/l

protoporphyrin IX
protoporphyrin IX concentration to obtain about 400 mg/l of PRP ([1]; garden pea peptone and protoporphyrin IX-based medium): about 100 μg/l | times less protoporphyrin IX than hemin required for maximum PRP production ([1]; garden pea peptone medium): About 12.5 times | heme source concentration required for optimum / maximum PRP production ([1]; garden pea peptone medium (FIG. 1)): about 200 μg/l | optimum PRP production ([1]; garden pea peptone medium, about 200 μg/l): ≈ 480 mg/l | PRP concentration in the culture supernatant at maximum production ([1]; plant peptone medium, 100 to 200 μg/l): 0.4 g/L | production of PRP (in words) ([1]; plant peptone medium, heme source at 10 μg/l): significant production of PRP | production of PRP ([1]; plant peptone medium, heme source at 50 μg/l (FIGS. 1 and 2)): ≥ 100 µg/L | protoporphyrin IX concentration to obtain about 400 mg/l of PRP ([2]; wheat peptone and protoporphyrin IX-based medium): about 100 μg/l | times less protoporphyrin IX than hemin required for maximum PRP production ([2]; wheat peptone medium): About 15 times | heme source concentration required for optimum / equivalent PRP production ([2]; wheat peptone medium (FIG. 2)): about 100 μg/l | optimum PRP production ([2]; wheat peptone medium, about 100 μg/l): ≈ 400 mg/l

protoporphyrin IX [Porcine protoporphyrin IX]
Mean PRP [1, 3]: 15.6 mg/L | PRP in mg/l Assay 1 [1, 3]: 15.1 mg/L | PRP in mg/l Assay 2 [1, 3]: 16.1 mg/L | Mean PRP [1, 4]: 146 mg/L | PRP in mg/l Assay 1 [1, 4]: 143 mg/L | PRP in mg/l Assay 2 [1, 4]: 149 mg/L | Mean PRP [1, 5]: 349 mg/L | PRP in mg/l Assay 1 [1, 5]: 344 mg/L | PRP in mg/l Assay 2 [1, 5]: 354 mg/L | Mean PRP [1, 6]: 470 mg/L | PRP in mg/l Assay 1 [1, 6]: 450 mg/L | PRP in mg/l Assay 2 [1, 6]: 490 mg/L | Mean PRP [1, 7]: 423.5 mg/L | PRP in mg/l Assay 1 [1, 7]: 415 mg/L | PRP in mg/l Assay 2 [1, 7]: 432 mg/L | Mean PRP [1, 8]: 509 mg/L | PRP in mg/l Assay 1 [1, 8]: 495 mg/L | PRP in mg/l Assay 2 [1, 8]: 523 mg/L | Mean PRP [1, 9]: 521 mg/L | PRP in mg/l Assay 1 [1, 9]: 492 mg/L | PRP in mg/l Assay 2 [1, 9]: 550 mg/L | Mean PRP [1, 10]: 479 mg/L | PRP in mg/l Assay 1 [1, 10]: 466 mg/L | PRP in mg/l Assay 2 [1, 10]: 493 mg/L | Mean PRP [2, 3]: 26.9 mg/L | PRP in mg/l Assay 1 [2, 3]: 25.5 mg/L | PRP in mg/l Assay 2 [2, 3]: 28.3 mg/L | Mean PRP [2, 4]: 142.5 mg/L | PRP in mg/l Assay 1 [2, 4]: 136 mg/L | PRP in mg/l Assay 2 [2, 4]: 149 mg/L | Mean PRP [2, 5]: 364 mg/L | PRP in mg/l Assay 1 [2, 5]: 429 mg/L | PRP in mg/l Assay 2 [2, 5]: 299 mg/L | Mean PRP [2, 6]: 430 mg/L | PRP in mg/l Assay 1 [2, 6]: 452 mg/L | PRP in mg/l Assay 2 [2, 6]: 408 mg/L | Mean PRP [2, 7]: 385.5 mg/L | PRP in mg/l Assay 1 [2, 7]: 397 mg/L | PRP in mg/l Assay 2 [2, 7]: 374 mg/L | Mean PRP [2, 8]: 388 mg/L | PRP in mg/l Assay 1 [2, 8]: 399 mg/L | PRP in mg/l Assay 2 [2, 8]: 377 mg/L | Mean PRP [2, 9]: 387.5 mg/L | PRP in mg/l Assay 1 [2, 9]: 446 mg/L | PRP in mg/l Assay 2 [2, 9]: 329 mg/L | Mean PRP [2, 10]: 373.5 mg/L | PRP in mg/l Assay 1 [2, 10]: 464 mg/L | PRP in mg/l Assay 2 [2, 10]: 283 mg/L

protoporphyrin IX [Synthetic protoporphyrin IX]
Mean PRP [1, 11]: 11.55 mg/L | PRP in mg/l Assay 1 [1, 11]: 11.3 mg/L | PRP in mg/l Assay 2 [1, 11]: 11.8 mg/L | Mean PRP [1, 12]: 136.5 mg/L | PRP in mg/l Assay 1 [1, 12]: 139 mg/L | PRP in mg/l Assay 2 [1, 12]: 134 mg/L | Mean PRP [1, 13]: 356.5 mg/L | PRP in mg/l Assay 1 [1, 13]: 330 mg/L | PRP in mg/l Assay 2 [1, 13]: 383 mg/L | Mean PRP [1, 14]: 488 mg/L | PRP in mg/l Assay 1 [1, 14]: 474 mg/L | PRP in mg/l Assay 2 [1, 14]: 502 mg/L | Mean PRP [1, 15]: 387.5 mg/L | PRP in mg/l Assay 1 [1, 15]: 383 mg/L | PRP in mg/l Assay 2 [1, 15]: 392 mg/L | Mean PRP [1, 16]: 499 mg/L | PRP in mg/l Assay 1 [1, 16]: 524 mg/L | PRP in mg/l Assay 2 [1, 16]: 474 mg/L | Mean PRP [1, 17]: 513 mg/L | PRP in mg/l Assay 1 [1, 17]: 503 mg/L | PRP in mg/l Assay 2 [1, 17]: 523 mg/L | Mean PRP [1, 18]: 488.5 mg/L | PRP in mg/l Assay 1 [1, 18]: 480 mg/L | PRP in mg/l Assay 2 [1, 18]: 497 mg/L | Mean PRP [2, 11]: 30.7 mg/L | PRP in mg/l Assay 1 [2, 11]: 33.5 mg/L | PRP in mg/l Assay 2 [2, 11]: 27.9 mg/L | Mean PRP [2, 12]: 318 mg/L | PRP in mg/l Assay 1 [2, 12]: 317 mg/L | PRP in mg/l Assay 2 [2, 12]: 319 mg/L | Mean PRP [2, 13]: 413 mg/L | PRP in mg/l Assay 1 [2, 13]: 389 mg/L | PRP in mg/l Assay 2 [2, 13]: 437 mg/L | Mean PRP [2, 14]: 347.5 mg/L | PRP in mg/l Assay 1 [2, 14]: 345 mg/L | PRP in mg/l Assay 2 [2, 14]: 350 mg/L | Mean PRP [2, 15]: 394.5 mg/L | PRP in mg/l Assay 1 [2, 15]: 380 mg/L | PRP in mg/l Assay 2 [2, 15]: 409 mg/L | Mean PRP [2, 16]: 402.5 mg/L | PRP in mg/l Assay 1 [2, 16]: 401 mg/L | PRP in mg/l Assay 2 [2, 16]: 404 mg/L | Mean PRP [2, 17]: 354 mg/L | PRP in mg/l Assay 1 [2, 17]: 358 mg/L | PRP in mg/l Assay 2 [2, 17]: 350 mg/L | Mean PRP [2, 18]: 404 mg/L | PRP in mg/l Assay 1 [2, 18]: 378 mg/L | PRP in mg/l Assay 2 [2, 18]: 430 mg/L
